Test results taken from PubChem BioAssay (NCI).
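Grown in 96-well plates, cells were treated for 48 hours with each compound at five concentrations. Insufficient inhibition: endpoint recorded as highest concentration tested. GI50 is the concentration that inhibits growth by half. The concentration for full growth arrest is given as TGI.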

What follows are compounds tested on SF-268 CNS (assay: NCI-60 cell line screen, 48 h).

| Structure (SMILES) | TGI [µM] | GI50 [µM] |
| --- | --- | --- |
| O=[N+]([O-])C(C(Cl)=C(Cl)Cl)=C(N1CCOCC1)N1CCOCC1 | > 100 |  |
| O=[N+]([O-])c1ccccc1N=Nc1c(O)sc2ccccc12 | > 100 |  |
| CC(C)CSc1nc(Nc2ccccc2)c(C#N)c(-c2ccc(F)cc2)n1 | 22.7 | 4.41 |
| COC(=O)[C@]12CCC(C)(C)C[C@H]1C1=CC[C@@H]3[C@@]4(C)C/C(=C/c5cccnc5)C(=O)C(C)(C)[C@@H]4CC[C@@]3(C)[C@]1(C)CC2 | 54 | 11.8 |
| C=CCN1C(=O)/C(=C/c2ccccc2)NC1=S | > 100 |  |

Each compound was assayed on RPMI-8226 leukemia (assay: NCI-60 cell line screen, 48 h).

| Structure (SMILES) | TGI [µM] | GI50 [µM] |
| --- | --- | --- |
| O=[N+]([O-])C(C(Cl)=C(Cl)Cl)=C(N1CCOCC1)N1CCOCC1 | > 100 |  |
| O=[N+]([O-])c1ccccc1N=Nc1c(O)sc2ccccc12 | > 100 |  |
| CC(C)CSc1nc(Nc2ccccc2)c(C#N)c(-c2ccc(F)cc2)n1 | > 100 | 5.49 |
| COC(=O)[C@]12CCC(C)(C)C[C@H]1C1=CC[C@@H]3[C@@]4(C)C/C(=C/c5cccnc5)C(=O)C(C)(C)[C@@H]4CC[C@@]3(C)[C@]1(C)CC2 | 6.39 | 2.31 |
| C=CCN1C(=O)/C(=C/c2ccccc2)NC1=S | > 100 |  |

These compounds were tested on CCRF-CEM leukemia (assay: NCI-60 cell line screen, 48 h).

| Structure (SMILES) | TGI [µM] | GI50 [µM] |
| --- | --- | --- |
| O=[N+]([O-])C(C(Cl)=C(Cl)Cl)=C(N1CCOCC1)N1CCOCC1 | > 100 |  |
| O=[N+]([O-])c1ccccc1N=Nc1c(O)sc2ccccc12 | > 100 |  |
| CC(C)CSc1nc(Nc2ccccc2)c(C#N)c(-c2ccc(F)cc2)n1 | > 100 | 5.53 |
| COC(=O)[C@]12CCC(C)(C)C[C@H]1C1=CC[C@@H]3[C@@]4(C)C/C(=C/c5cccnc5)C(=O)C(C)(C)[C@@H]4CC[C@@]3(C)[C@]1(C)CC2 | 13.7 | 2.81 |
| C=CCN1C(=O)/C(=C/c2ccccc2)NC1=S | > 100 |  |

What follows are compounds tested on MALME-3M melanoma (assay: NCI-60 cell line screen, 48 h).

| Structure (SMILES) | TGI [µM] | GI50 [µM] |
| --- | --- | --- |
| O=[N+]([O-])C(C(Cl)=C(Cl)Cl)=C(N1CCOCC1)N1CCOCC1 | > 100 |  |
| O=[N+]([O-])c1ccccc1N=Nc1c(O)sc2ccccc12 | > 100 |  |
| CC(C)CSc1nc(Nc2ccccc2)c(C#N)c(-c2ccc(F)cc2)n1 | 10.6 | 2.27 |
| COC(=O)[C@]12CCC(C)(C)C[C@H]1C1=CC[C@@H]3[C@@]4(C)C/C(=C/c5cccnc5)C(=O)C(C)(C)[C@@H]4CC[C@@]3(C)[C@]1(C)CC2 | 18.2 | 5.24 |
| C=CCN1C(=O)/C(=C/c2ccccc2)NC1=S | > 100 |  |

Each compound was assayed on HOP-62 NSCLC (assay: NCI-60 cell line screen, 48 h).

| Structure (SMILES) | TGI [µM] | GI50 [µM] |
| --- | --- | --- |
| O=[N+]([O-])C(C(Cl)=C(Cl)Cl)=C(N1CCOCC1)N1CCOCC1 | > 100 |  |
| O=[N+]([O-])c1ccccc1N=Nc1c(O)sc2ccccc12 | > 100 |  |
| CC(C)CSc1nc(Nc2ccccc2)c(C#N)c(-c2ccc(F)cc2)n1 | 12.9 | 2.1 |
| COC(=O)[C@]12CCC(C)(C)C[C@H]1C1=CC[C@@H]3[C@@]4(C)C/C(=C/c5cccnc5)C(=O)C(C)(C)[C@@H]4CC[C@@]3(C)[C@]1(C)CC2 | 67 | 13.6 |
| C=CCN1C(=O)/C(=C/c2ccccc2)NC1=S | > 100 |  |

What follows are compounds tested on SNB-75 CNS (assay: NCI-60 cell line screen, 48 h).

| Structure (SMILES) | TGI [µM] | GI50 [µM] |
| --- | --- | --- |
| O=[N+]([O-])C(C(Cl)=C(Cl)Cl)=C(N1CCOCC1)N1CCOCC1 | > 100 |  |
| O=[N+]([O-])c1ccccc1N=Nc1c(O)sc2ccccc12 | 79.5 |  |
| CC(C)CSc1nc(Nc2ccccc2)c(C#N)c(-c2ccc(F)cc2)n1 | 5.21 | 1.24 |
| COC(=O)[C@]12CCC(C)(C)C[C@H]1C1=CC[C@@H]3[C@@]4(C)C/C(=C/c5cccnc5)C(=O)C(C)(C)[C@@H]4CC[C@@]3(C)[C@]1(C)CC2 | 48.5 | 17.6 |
| C=CCN1C(=O)/C(=C/c2ccccc2)NC1=S | > 100 |  |

What follows are compounds tested on HCC-2998 colon (assay: NCI-60 cell line screen, 48 h).

| Structure (SMILES) | TGI [µM] | GI50 [µM] |
| --- | --- | --- |
| O=[N+]([O-])C(C(Cl)=C(Cl)Cl)=C(N1CCOCC1)N1CCOCC1 | > 100 |  |
| O=[N+]([O-])c1ccccc1N=Nc1c(O)sc2ccccc12 | > 100 |  |
| CC(C)CSc1nc(Nc2ccccc2)c(C#N)c(-c2ccc(F)cc2)n1 | > 100 | 13.1 |
| COC(=O)[C@]12CCC(C)(C)C[C@H]1C1=CC[C@@H]3[C@@]4(C)C/C(=C/c5cccnc5)C(=O)C(C)(C)[C@@H]4CC[C@@]3(C)[C@]1(C)CC2 | 19.5 | 5.56 |
| C=CCN1C(=O)/C(=C/c2ccccc2)NC1=S | > 100 |  |

Each compound was assayed on BT-549 breast (assay: NCI-60 cell line screen, 48 h).

| Structure (SMILES) | GI50 [µM] | TGI [µM] |
| --- | --- | --- |
| CC(C)CSc1nc(Nc2ccccc2)c(C#N)c(-c2ccc(F)cc2)n1 | 7.24 | 32.3 |
| COC(=O)[C@]12CCC(C)(C)C[C@H]1C1=CC[C@@H]3[C@@]4(C)C/C(=C/c5cccnc5)C(=O)C(C)(C)[C@@H]4CC[C@@]3(C)[C@]1(C)CC2 | 2.56 | 7.93 |
| C=CCN1C(=O)/C(=C/c2ccccc2)NC1=S |  | > 100 |

Each compound was assayed on PC-3 prostate (assay: NCI-60 cell line screen, 48 h).

| Structure (SMILES) | TGI [µM] | GI50 [µM] |
| --- | --- | --- |
| O=[N+]([O-])C(C(Cl)=C(Cl)Cl)=C(N1CCOCC1)N1CCOCC1 | > 100 |  |
| O=[N+]([O-])c1ccccc1N=Nc1c(O)sc2ccccc12 | > 100 |  |
| CC(C)CSc1nc(Nc2ccccc2)c(C#N)c(-c2ccc(F)cc2)n1 | 81.2 | 18.1 |
| COC(=O)[C@]12CCC(C)(C)C[C@H]1C1=CC[C@@H]3[C@@]4(C)C/C(=C/c5cccnc5)C(=O)C(C)(C)[C@@H]4CC[C@@]3(C)[C@]1(C)CC2 | 10.4 | 2.37 |
| C=CCN1C(=O)/C(=C/c2ccccc2)NC1=S | > 100 |  |

What follows are compounds tested on SK-MEL-5 melanoma (assay: NCI-60 cell line screen, 48 h).

| Structure (SMILES) | TGI [µM] | GI50 [µM] |
| --- | --- | --- |
| O=[N+]([O-])C(C(Cl)=C(Cl)Cl)=C(N1CCOCC1)N1CCOCC1 | > 100 |  |
| O=[N+]([O-])c1ccccc1N=Nc1c(O)sc2ccccc12 | > 100 |  |
| CC(C)CSc1nc(Nc2ccccc2)c(C#N)c(-c2ccc(F)cc2)n1 | 82.4 | 24.7 |
| COC(=O)[C@]12CCC(C)(C)C[C@H]1C1=CC[C@@H]3[C@@]4(C)C/C(=C/c5cccnc5)C(=O)C(C)(C)[C@@H]4CC[C@@]3(C)[C@]1(C)CC2 | 17.9 | 5.58 |
| C=CCN1C(=O)/C(=C/c2ccccc2)NC1=S | > 100 |  |

What follows are compounds tested on HCT-116 colon (assay: NCI-60 cell line screen, 48 h).

| Structure (SMILES) | TGI [µM] | GI50 [µM] |
| --- | --- | --- |
| O=[N+]([O-])C(C(Cl)=C(Cl)Cl)=C(N1CCOCC1)N1CCOCC1 | > 100 |  |
| O=[N+]([O-])c1ccccc1N=Nc1c(O)sc2ccccc12 | > 100 |  |
| CC(C)CSc1nc(Nc2ccccc2)c(C#N)c(-c2ccc(F)cc2)n1 | 11.9 | 2.01 |
| COC(=O)[C@]12CCC(C)(C)C[C@H]1C1=CC[C@@H]3[C@@]4(C)C/C(=C/c5cccnc5)C(=O)C(C)(C)[C@@H]4CC[C@@]3(C)[C@]1(C)CC2 | 12.1 | 2.71 |
| C=CCN1C(=O)/C(=C/c2ccccc2)NC1=S | > 100 |  |

Each compound was assayed on UACC-257 melanoma (assay: NCI-60 cell line screen, 48 h).

| Structure (SMILES) | TGI [µM] | GI50 [µM] |
| --- | --- | --- |
| O=[N+]([O-])C(C(Cl)=C(Cl)Cl)=C(N1CCOCC1)N1CCOCC1 | > 100 |  |
| O=[N+]([O-])c1ccccc1N=Nc1c(O)sc2ccccc12 | > 100 |  |
| CC(C)CSc1nc(Nc2ccccc2)c(C#N)c(-c2ccc(F)cc2)n1 | 33.3 | 10.3 |
| COC(=O)[C@]12CCC(C)(C)C[C@H]1C1=CC[C@@H]3[C@@]4(C)C/C(=C/c5cccnc5)C(=O)C(C)(C)[C@@H]4CC[C@@]3(C)[C@]1(C)CC2 | 42.8 | 12.5 |
| C=CCN1C(=O)/C(=C/c2ccccc2)NC1=S | > 100 |  |

Each compound was assayed on A549 NSCLC (assay: NCI-60 cell line screen, 48 h).

| Structure (SMILES) | TGI [µM] | GI50 [µM] |
| --- | --- | --- |
| O=[N+]([O-])C(C(Cl)=C(Cl)Cl)=C(N1CCOCC1)N1CCOCC1 | > 100 |  |
| O=[N+]([O-])c1ccccc1N=Nc1c(O)sc2ccccc12 | > 100 |  |
| CC(C)CSc1nc(Nc2ccccc2)c(C#N)c(-c2ccc(F)cc2)n1 | 18.8 | 1.71 |
| COC(=O)[C@]12CCC(C)(C)C[C@H]1C1=CC[C@@H]3[C@@]4(C)C/C(=C/c5cccnc5)C(=O)C(C)(C)[C@@H]4CC[C@@]3(C)[C@]1(C)CC2 | > 100 | 11.9 |
| C=CCN1C(=O)/C(=C/c2ccccc2)NC1=S | > 100 |  |

The compounds below were run on COLO 205 colon (assay: NCI-60 cell line screen, 48 h).

| Structure (SMILES) | TGI [µM] | GI50 [µM] |
| --- | --- | --- |
| O=[N+]([O-])C(C(Cl)=C(Cl)Cl)=C(N1CCOCC1)N1CCOCC1 | > 100 |  |
| O=[N+]([O-])c1ccccc1N=Nc1c(O)sc2ccccc12 | > 100 |  |
| CC(C)CSc1nc(Nc2ccccc2)c(C#N)c(-c2ccc(F)cc2)n1 | 20.1 | 1.86 |
| COC(=O)[C@]12CCC(C)(C)C[C@H]1C1=CC[C@@H]3[C@@]4(C)C/C(=C/c5cccnc5)C(=O)C(C)(C)[C@@H]4CC[C@@]3(C)[C@]1(C)CC2 | 25.3 | 6.51 |
| C=CCN1C(=O)/C(=C/c2ccccc2)NC1=S | > 100 |  |

The compounds below were run on UACC-62 melanoma (assay: NCI-60 cell line screen, 48 h).

| Structure (SMILES) | TGI [µM] |
| --- | --- |
| O=[N+]([O-])C(C(Cl)=C(Cl)Cl)=C(N1CCOCC1)N1CCOCC1 | > 100 |
| O=[N+]([O-])c1ccccc1N=Nc1c(O)sc2ccccc12 | > 100 |
